Assay results as given in patent US20160136118A1, “COMPOSITIONS AND METHODS FOR THE TREATMENT OF A COMMON COLD AND SYMPTOMS THEREOF” (3E THERAPEUTICS CORPORATION, priority 2007, published 2016).

How the values were obtained:
[1] = system: human patients exposed to cat allergen; assay: Single-blind study, exposure to cat allergen after contrast media pretreatment (Example 11); assay type: in vivo; conditions: for Reactions on exposure to cat allergen: allergen diluted 1:10
Experimental: A single-blind study was conducted using three human patients. The patients were exposed to cat allergen at three different dilutions, 1:1,000, 1:100, and 1:10. […] Exposure to the 1:100 dilution of allergen caused a mild reaction in all of the patients. Exposure to the 1:10 dilution of allergen caused moderate reactions in all of the patients, with one patient in particular requiring some treatment for the reaction.
Patients were then pre-treated with VISIPAQUE®320 (iodixanol).
Patients were pre-treated with Iotrolan 280.
Table 1 summarizes the results and symptoms after exposure to a 1:10 dilution of cat allergen both with and without pretreatment with VISIPAQUE®320 or Iotrolan 280.

[2] = system: human patients exposed to cat allergen; assay: Single-blind study, cat allergen at three dilutions with or without pretreatment, symptoms per patient (Example 12); assay type: in vivo; parameters: Drip / Congestion / Itch: scale not given here; conditions: for Itch / Sneezes / Congestion / Drip: pretreatment
Experimental: A single-blind study was conducted using three human patients. Patients were pre-treated with VISIPAQUE®320 (Iodixanol) or not treated with contrast media. The patients were exposed to cat allergen at three different dilutions, 1:1000, 1:100, and 1:10. Patient symptoms of itch, drip, congestion, and sneeze were assessed.
Tables 2-4 show the results and symptoms after exposure to the indicated dilution of cat allergen both with and without pretreatment with VISIPAQUE®320.
In a similar study, patients were treated with Iotrolan 280 prior to exposure to 1:10, 1:100, or 1:1000 dilutions of cat allergen.

[3] = system: histamine, dust allergen and grass allergen injected into patient's arm; assay: Skin reaction to injected histamine, dust allergen and grass allergen after topical pretreatment of the arm (Example 13); assay type: in vivo, human
Experimental: FIG. 1 is a photograph showing the response of the patient to 6 injections. Three substances were each injected twice at two different locations, for a total of 6 injections. Each substance was injected at one location that had been pretreated with CHOLOGRAFIN® meglumine and at a second location that had not been pretreated. CHOLOGRAFIN® meglumine, which comprises 80% Iodipamide in emollient, was applied topically to part of a patient's arm. Forty five minutes after application of the CHOLOGRAFIN® meglumine, each of the three substances was injected into the two different locations on the arm, one pretreated and one that was not pretreated. The three substances were histamine, dust allergen, and grass allergen. Referring to FIG. 1, the two histamine injections went into the upper level of the arm, the two dust allergen injections went into the middle level of the arm, and the two grass allergen injections went into the lower level of the arm. FIG. 1 is a photograph showing the resulting reactions taken 2.5 hours after the injections. […] The reactions of upper, middle and lower levels of the arm on the untreated sides were rated with scores of 3+, 4+, and 4+, respectively. The reactions of the upper, middle and lower levels of the arm on the pretreated sides were rated with scores of 1+, 2+, and 2+, respectively.

[4] = 1:10 dilution of cat allergen, pretreatment, three human patients
[5] = Patient 1, 1:10 concentration cat allergen
[6] = Patient 1, 1:100 concentration cat allergen
[7] = Patient 1, 1:1000 concentration cat allergen
[8] = Patient 2, 1:10 concentration cat allergen
[9] = Patient 2, 1:100 concentration cat allergen
[10] = Patient 2, 1:1000 concentration cat allergen
[11] = Patient 3, 1:10 concentration cat allergen
[12] = Patient 3, 1:100 concentration cat allergen
[13] = Patient 3, 1:1000 concentration cat allergen

CN(C(=O)CC(=O)N(C)c1c(I)c(C(=O)NC(CO)C(O)CO)c(I)c(C(=O)NC(CO)C(O)CO)c1I)c1c(I)c(C(=O)NC(CO)C(O)CO)c(I)c(C(=O)NC(CO)C(O)CO)c1I (centres unmarked) [Iotrolan 280, Iotrolan]
Reaction to the cat allergen compared to the reaction without pretreatment ([1]; 1:10 dilution of cat allergen): decreased reaction | Itch [1, 4]: 0 | Sneezes [1, 4]: 2× | Reactions on exposure to cat allergen ([1]; after pretreatment): mild reactions

CC(=O)N(CC(O)CN(C(C)=O)c1c(I)c(C(=O)NCC(O)CO)c(I)c(C(=O)NCC(O)CO)c1I)c1c(I)c(C(=O)NCC(O)CO)c(I)c(C(=O)NCC(O)CO)c1I (centres unmarked) [Visipaque 320, iodixanol]
Reaction to the cat allergen compared to the reaction without pretreatment ([1]; 1:10 dilution of cat allergen): decreased reaction | Sneezes [1, 4]: 2× | Reactions on exposure to cat allergen ([1]; after pretreatment): mild reactions | Symptoms on exposure to cat allergen ([1]; cat allergen diluted 1:100, after pretreatment): not associated with any symptoms | Symptoms in response to the cat allergen compared to the reaction without pretreatment ([2]; 1:1000, 1:100, 1:10 dilutions, three human patients): decreased symptoms | Itch [2, 5]: 0 | Sneezes [2, 5]: 2× | Congestion [2, 6]: 0 | Drip [2, 6]: 0 | Itch [2, 6]: 0 | Sneezes [2, 6]: 0 × | Congestion [2, 7]: 0 | Drip [2, 7]: 0 | Itch [2, 7]: 0 | Sneezes [2, 7]: 0 × | Congestion [2, 8]: 0 | Drip [2, 8]: 0 | Itch [2, 8]: 0 | Sneezes [2, 8]: 0 × | Congestion [2, 9]: 0 | Drip [2, 9]: 0 | Itch [2, 9]: 0 | Sneezes [2, 9]: 0 × | Congestion [2, 10]: 0 | Drip [2, 10]: 0 | Itch [2, 10]: 0 | Sneezes [2, 10]: 0 × | Drip [2, 11]: 0 | Sneezes [2, 11]: 2× | Congestion [2, 12]: 0 | Drip [2, 12]: 0 | Itch [2, 12]: 0 | Sneezes [2, 12]: 0 × | Congestion [2, 13]: 0 | Itch [2, 13]: 0 | Sneezes [2, 13]: 0 ×

O=C(CCCCC(=O)Nc1c(I)cc(I)c(C(=O)O)c1I)Nc1c(I)cc(I)c(C(=O)O)c1I [iodipamide, Iodipamide]
Reaction to histamine, dust allergen and grass allergen, pretreated versus untreated side [3]: decreased reaction
